From ChEMBL document CHEMBL1201862, “PubChem BioAssay data set” (2004) come the findings set out here.

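Where inhibition never reached the appropriate level, the endpoint shown equals the highest concentration tested. Otherwise, values were interpolated linearly from a five-concentration, 48-hour dose response in 96-well plates. Here, GI50 denotes the concentration required for 50% inhibition of growth.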 The source made the active and inactive calls. Cut-off read from the data, not from the text of the source: active = GI50 up to about 1.1 µM and inactive = higher.

Holding throughout (assay): NCI-60 cell line screen, 48 h
Test [1] deals with 786-0.
Test [2] concerns BT-549.
Test [3] has as its system DU-145.
Test [4] deals with HOP-62.
For test [5], the system named is HT-29.
For test [6], the system named is K562.
For test [7], the system named is KM12.
Test [8] relates to LOX IMVI.
The test system of test [9] is Malme-3M.
Test [10] deals with NCI-H522.
The subject of test [11] is OVCAR-3.
Test [12] deals with OVCAR-4.
Test [13] deals with RXF 393.
Test [14] concerns SF-268.
For test [15], the system named is SF-295.
Test [16] concerns SF-539.
The test system of test [17] is SNB-19.
Test [18] has as its system T47D.
The test system of test [19] is U-251.

`C[C@@H]1CC[C@@]2(NC1)O[C@H]1C[C@H]3[C@@H]4CC[C@H]5C[C@@H](O)CC[C@]5(C)[C@H]4CC[C@]3(C)[C@H]1[C@@H]2C`: the GI50 in test [1] was 31.6 µM (inactive); in test [2], > 100 µM (inactive); in test [3] it was > 100 µM (inactive); in [4] it was 64.4 µM (inactive); in [5] it was 57.4 µM (inactive); in test [6] it was 63.1 µM (inactive). Also, the GI50 in test [7] is 27.3 µM (inactive); in test [8] it was 32.7 µM (inactive); in test [9] it was > 100 µM (inactive); in test [10], > 100 µM (inactive); in test [11] it was 61.7 µM (inactive); in [12] it was 26.8 µM (inactive). For the same molecule, the GI50 was > 100 µM (inactive) in test [13]; > 100 µM (inactive) in test [14]; 35.5 µM (inactive) in [15]; 25.3 µM (inactive) in test [16]; 30.6 µM (inactive) in [17]; > 100 µM (inactive) in test [18]. Also, the GI50 in [19] was 61.2 µM (inactive).
For `COc1ccc(/C=C(\C(=C/c2ccc(OC)cc2)[N+](=O)[O-])[N+](=O)[O-])cc1`, the GI50 in test [1] is 2.04 µM (inactive); in test [2], 6.1 µM (inactive); in test [3], 12.1 µM (inactive); in [4], 5.47 µM (inactive); in [5] it was 3.39 µM (inactive); in test [6] it was 3.92 µM (inactive). Further, the GI50 in test [7] is 14.6 µM (inactive); in test [8] it was 2.05 µM (inactive); in test [9], 3.34 µM (inactive); in [10], 2.58 µM (inactive); in test [11], 12.8 µM (inactive); in test [12], 12.8 µM (inactive). The GI50 was 1.54 µM (inactive) in [13]; 4.09 µM (inactive) in [14]; 14.3 µM (inactive) in [15]; 2.24 µM (inactive) in test [16]; 10.1 µM (inactive) in test [17]; 8.83 µM (inactive) in [18]. Also, the GI50 in test [19] is 2.58 µM (inactive).
Take `Cc1ccc2c(=O)cc(-c3ccc(-c4ccccc4)s3)[nH]c2n1`: the GI50 in test [1] is 16.1 µM (inactive); in [2] it was > 33.6 µM (inactive); in test [3], > 100 µM (inactive); in test [4], 30.6 µM (inactive); in test [5], > 100 µM (inactive); in [6] it was 11.9 µM (inactive). The GI50 in test [7] was > 24.5 µM (inactive); in [8], > 48.3 µM (inactive); in [9], > 42.9 µM (inactive); in test [10] it was > 19.7 µM (inactive); in test [11], 24.8 µM (inactive); in [12], 38.5 µM (inactive). The GI50 is > 59.8 µM (inactive) in test [13]; > 63 µM (inactive) in [14]; > 28.8 µM (inactive) in test [15]; 13 µM (inactive) in [16]; 70.1 µM (inactive) in test [17]; > 76.7 µM (inactive) in test [18]. In addition, in test [19], the GI50 is 16.4 µM (inactive).
Regarding `COC1=CC(=O)c2c(O)c3c(c(O)c2C1=O)CC(C)(O)OC3` (stereo unspecified) [FUSARUBIN], the GI50 in test [1] is 5.51 µM (inactive); in test [2], 6.44 µM (inactive); in [3] it was 3.97 µM (inactive); in test [4], 3.19 µM (inactive); in test [5], 2.12 µM (inactive); in test [6], 3.44 µM (inactive). Besides, the GI50 is 3.1 µM (inactive) in [7]; 2.59 µM (inactive) in [8]; 0.653 µM (active) in test [9]; 2.25 µM (inactive) in test [10]; 0.906 µM (active) in [11]; 1.4 µM (inactive) in test [12]. Further, the GI50 in [13] is 4.17 µM (inactive); in test [14] it was 3.85 µM (inactive); in test [15], 3.12 µM (inactive); in [16], 3.33 µM (inactive); in [17], 3.27 µM (inactive); in test [18], 2.05 µM (inactive). Further, the GI50 in test [19] is 3.08 µM (inactive).
Consider `COc1ccc(/N=C/N(C)C)c(C)c1`, for which the GI50 is 13.6 µM (inactive) in [1]; 18.3 µM (inactive) in test [2]; 4.16 µM (inactive) in [3]; 18.3 µM (inactive) in test [4]; 5.4 µM (inactive) in test [5]; 2.51 µM (inactive) in [6]. Also, the GI50 in test [8] is 3.15 µM (inactive); in [9] it was 9.57 µM (inactive); in [10], 2.43 µM (inactive); in test [11] it was 2.36 µM (inactive); in [12] it was 9.42 µM (inactive); in [13], 10.6 µM (inactive). Also, the GI50 is 19 µM (inactive) in [14]; 11 µM (inactive) in [15]; 22.9 µM (inactive) in [16]; 21.6 µM (inactive) in [17]; 9.55 µM (inactive) in test [18]; 4.28 µM (inactive) in test [19].
Take `O=[N+]([O-])c1ccc2c(c1)c(OCc1ccccc1)nn2Cc1ccccc1`: the GI50 in test [1] was 55 µM (inactive); in test [2] it was 71.8 µM (inactive); in test [3], > 100 µM (inactive); in [4], 36.3 µM (inactive); in test [5], > 100 µM (inactive); in test [6], > 100 µM (inactive). Also, the GI50 in [7] is > 100 µM (inactive); in test [8] it was > 100 µM (inactive); in test [9] it was 78.5 µM (inactive); in test [10], 23 µM (inactive); in test [11], > 100 µM (inactive); in test [13], 34.2 µM (inactive). In addition, the GI50 in [14] was > 100 µM (inactive); in [15] it was 51.2 µM (inactive); in test [16], 34.5 µM (inactive); in [17] it was > 100 µM (inactive); in test [18], > 100 µM (inactive).
Take `O=C(CCCn1ccnc1[N+](=O)[O-])NCCn1cncc1[N+](=O)[O-]`: the GI50 in [1], in test [2], in test [3], in test [4], in [5] and in test [6] was > 100 µM (inactive) in each case. Also, the GI50 in [7], in [8], in test [9], in [10], in [11] and in [12] was > 100 µM (inactive) throughout. For the same molecule, the GI50 in test [13], in test [14], in [15], in [16], in test [18] and in test [19] was > 100 µM (inactive) throughout.
Consider `CC1OC(n2cnc3c(N)nc(Cl)nc32)C(C)(O)C1O` (stereo unspecified), for which the GI50 in [1], in test [2], in [3], in test [4], in test [5] and in test [6] was > 25 µM (inactive) each time. In addition, the GI50 in test [7], in test [8], in [9], in [10], in test [11] and in test [12] was > 25 µM (inactive) throughout. Moreover, the GI50 in [13], in test [14], in test [15], in test [16], in [17] and in test [18] was > 25 µM (inactive) each time.
`COc1ccccc1-c1cc(=O)c2ccc(OC)c(OC)c2o1`: the GI50 is 89.1 µM (inactive) in test [1]; 76.9 µM (inactive) in test [2]; 55.5 µM (inactive) in [3]; > 100 µM (inactive) in [4]; 34.3 µM (inactive) in test [5]; > 100 µM (inactive) in test [6]. For the same molecule, the GI50 in test [8] is 33.1 µM (inactive); in [9] it was 92.5 µM (inactive); in test [10], 32.8 µM (inactive); in [11], 31.6 µM (inactive); in [12], 38.4 µM (inactive); in test [13], 27.1 µM (inactive). Besides, the GI50 was > 100 µM (inactive) in [14]; 40.8 µM (inactive) in test [15]; > 100 µM (inactive) in test [16]; 82.2 µM (inactive) in [17]; 19.3 µM (inactive) in test [18]; 46.1 µM (inactive) in [19].
As for `O=C1/C(=C/c2ccco2)N=C(c2ccccc2)N1c1ccc(S(=O)(=O)Nc2nccs2)cc1`, the GI50 in test [1], in test [2], in [3], in [4], in test [5] and in test [6] was > 100 µM (inactive) throughout. Also, the GI50 in test [7] is > 100 µM (inactive); in test [8], > 100 µM (inactive); in test [9], > 100 µM (inactive); in test [10] it was 30.9 µM (inactive); in [11] it was 83.9 µM (inactive); in test [12], 69.2 µM (inactive). In addition, the GI50 in [13] is 69.5 µM (inactive); in test [14], > 100 µM (inactive); in test [15], > 100 µM (inactive); in test [16], > 100 µM (inactive); in test [18], 80.4 µM (inactive); in test [19], 71.9 µM (inactive).
As to `Cc1noc(NC(=O)Nc2ccccc2F)c1C#N`, the GI50 is 7.69 µM (inactive) in test [1]; > 100 µM (inactive) in test [2]; 49.8 µM (inactive) in test [3]; 22.3 µM (inactive) in test [4]; > 45.8 µM (inactive) in [6]; > 100 µM (inactive) in test [7]. Besides, the GI50 in [8] was 58.5 µM (inactive); in test [9] it was 28.8 µM (inactive); in test [10] it was 7.93 µM (inactive); in test [11], 64.3 µM (inactive); in test [12] it was 69.8 µM (inactive); in test [13], > 66.8 µM (inactive). The GI50 in test [14] was 12.4 µM (inactive); in test [15], 41.5 µM (inactive); in test [16] it was > 100 µM (inactive); in test [17] it was > 35 µM (inactive); in test [18], 18.3 µM (inactive); in [19], 21.5 µM (inactive).
